Assay type in all cases: functional
Test [1] has as its system Staphylococcus aureus. Briefly: Antibacterial activity against […] Staphylococcus aureus ATCC 29213 after 24 h by NCCLS broth microdilution method. Conditions: ATCC 29213, 24 h.
In test [2] the test system is Streptococcus pneumoniae. Briefly: Antibacterial activity against erythromycin-resistant Streptococcus pneumoniae AB11 harboring harboring mef and erm gene after 24 h by NCCLS broth microdilution method. Conditions: AB11, 24 h. A general note: In broth dilution the organism is exposed to a series of concentrations in liquid medium.
Test [3] concerns Streptococcus pneumoniae. Description: Antibacterial activity against erythromycin-resistant Streptococcus pneumoniae B1 harboring erm gene after 24 h by NCCLS broth microdilution method. The settings on record: B1, 24 h.
For test [4], the system named is Streptococcus pneumoniae. Description: Antibacterial activity against erythromycin-resistant Streptococcus pneumoniae A22072 harboring mef gene after 24 h by NCCLS broth microdilution method. Conditions: A22072, 24 h.
Test [5] deals with Streptococcus pneumoniae. Description: Potency index, ratio of clarithromycin MIC to compound MIC against erythromycin-resistant Streptococcus pneumoniae A22072.
Test [6] concerns Streptococcus pyogenes. Description: Antibacterial activity against erythromycin-susceptible Streptococcus pyogenes after 24 h by NCCLS broth microdilution method.
The next test has as its system Pseudomonas aeruginosa. Description: Antibacterial activity against penicillin-susceptible Pseudomonas aeruginosa ATCC 27853 after 24 h by NCCLS broth microdilution method. Conditions: ATCC 27853, 24 h.
Test [7] deals with Streptococcus pyogenes. Briefly: Antibacterial activity against erythromycin-resistant Streptococcus pyogenes R1 after 24 h by NCCLS broth microdilution method. Conditions: R1, 24 h.
Test [8] concerns Staphylococcus aureus. Briefly: Antibacterial activity against erythromycin-susceptible Staphylococcus aureus ATCC 25923 after 24 h by NCCLS broth microdilution method. Conditions: ATCC 25923, 24 h.
The test system of another test is Bacillus subtilis. Description: Antibacterial activity against penicillin-susceptible Bacillus subtilis ATCC 9372 after 24 h by NCCLS broth microdilution method. Conditions: ATCC 9372, 24 h.
Another test deals with Escherichia coli. Briefly: Antibacterial activity against penicillin-susceptible Escherichia coli ATCC 25922 after 24 h by NCCLS broth microdilution method. Conditions: ATCC 25922, 24 h.
Test [9] relates to Streptococcus pneumoniae. Briefly: Potency index, ratio of azithromycin MIC to compound MIC against erythromycin-resistant Streptococcus pneumoniae A22072.

The structures appear in SMILES notation. Values after ≈ are worked out from the molar mass of the structure shown. Some results are limits rather than exact numbers.

For the compound `CC[C@H]1OC(=O)[C@H](C)C(=O)[C@H](C)[C@@H](O[C@@H]2O[C@H](C)C[C@H](N(C)C)[C@H]2O)[C@](C)(OC)C[C@@H](C)C(=O)[C@H](C)[C@@H](OC(=O)NCCNC(=O)c2ccc([N+](=O)[O-])cc2N)[C@]1(C)O`, the MIC (in general, the lowest concentration found to suppress growth) in the test on Staphylococcus aureus [1] was 128 µg/mL (≈ 153 µM); against Streptococcus pneumoniae [2], 64 µg/mL (≈ 76.4 µM); with Streptococcus pneumoniae [3], 128 µg/mL (≈ 153 µM); against Streptococcus pneumoniae [4], 0.5 µg/mL (≈ 0.597 µM); in the test on Streptococcus pyogenes [6], 0.5 µg/mL (≈ 0.597 µM); against Pseudomonas aeruginosa it was more than 128 µg/mL. Further, the MIC against Streptococcus pyogenes [7] is more than 128 µg/mL; against Staphylococcus aureus [8], 8 µg/mL (≈ 9.55 µM); with Bacillus subtilis, 1 µg/mL (≈ 1.19 µM); against Escherichia coli, 128 µg/mL (≈ 153 µM). For the same compound, the Ratio in the test on Streptococcus pneumoniae [5] is given as 8; in the test with Streptococcus pneumoniae [9] it was 4.
With `CC[C@H]1OC(=O)[C@H](C)C(=O)[C@H](C)[C@@H](O[C@@H]2O[C@H](C)C[C@H](N(C)C)[C@H]2O)[C@](C)(OC)C[C@@H](C)C(=O)[C@H](C)[C@@H](OC(=O)NCCNC(=O)/C=C/c2ccc(Cl)cc2)[C@]1(C)O`, the MIC is 64 µg/mL (≈ 76.3 µM) in the test on Staphylococcus aureus [1]; 128 µg/mL (≈ 153 µM) against Streptococcus pneumoniae [2]; 128 µg/mL (≈ 153 µM) in the test on Streptococcus pneumoniae [3]; 0.5 µg/mL (≈ 0.596 µM) against Streptococcus pneumoniae [4]; 2 µg/mL (≈ 2.39 µM) in the test on Streptococcus pyogenes [6]; more than 128 µg/mL in the test on Pseudomonas aeruginosa. The MIC with Streptococcus pyogenes [7] is more than 128 µg/mL; with Staphylococcus aureus [8] it was 16 µg/mL (≈ 19.1 µM); in the test with Bacillus subtilis, 4 µg/mL (≈ 4.77 µM); with Escherichia coli, more than 128 µg/mL. Moreover, the figures for the Ratio with Streptococcus pneumoniae [5] and in the test on Streptococcus pneumoniae [9] were 8 and 4, respectively.
Turning to `CC[C@H]1OC(=O)[C@H](C)C(=O)[C@H](C)[C@@H](O[C@@H]2O[C@H](C)C[C@H](N(C)C)[C@H]2O)[C@](C)(OC)C[C@@H](C)C(=O)[C@H](C)[C@@H](OC(=O)NCCNC(=O)c2cc([N+](=O)[O-])cc([N+](=O)[O-])c2)[C@]1(C)O`, the MIC against Staphylococcus aureus [1] is 128 µg/mL (≈ 147 µM); with Streptococcus pneumoniae [2] it was 64 µg/mL (≈ 73.7 µM); against Streptococcus pneumoniae [3], 128 µg/mL (≈ 147 µM); against Streptococcus pneumoniae [4] it was 0.5 µg/mL (≈ 0.576 µM); in the test with Streptococcus pyogenes [6] it was 0.125 µg/mL (≈ 0.144 µM); against Pseudomonas aeruginosa, 128 µg/mL (≈ 147 µM). Further, the minimal inhibitory concentration (MIC) in the test on Streptococcus pyogenes [7] came out at 128 µg/mL (≈ 147 µM); with Staphylococcus aureus [8] it was 8 µg/mL (≈ 9.22 µM); with Bacillus subtilis, 1 µg/mL (≈ 1.15 µM); with Escherichia coli, 128 µg/mL (≈ 147 µM). For the same compound, the Ratio with Streptococcus pneumoniae [5] came to 8; in the test with Streptococcus pneumoniae [9], 4.
As to `CC[C@H]1OC(=O)[C@H](C)C(=O)[C@H](C)[C@@H](O[C@@H]2O[C@H](C)C[C@H](N(C)C)[C@H]2O)[C@](C)(OC)C[C@@H](C)C(=O)[C@H](C)[C@@H](OC(=O)NCCNC(=O)c2ccc(Cl)cc2)[C@]1(C)O`, the MIC was 128 µg/mL (≈ 158 µM) in the test with Staphylococcus aureus [1]; 64 µg/mL (≈ 78.8 µM) with Streptococcus pneumoniae [2]; 128 µg/mL (≈ 158 µM) in the test with Streptococcus pneumoniae [3]; 0.5 µg/mL (≈ 0.615 µM) in the test with Streptococcus pneumoniae [4]; 1 µg/mL (≈ 1.23 µM) against Streptococcus pyogenes [6]; 128 µg/mL (≈ 158 µM) against Pseudomonas aeruginosa. The MIC in the test with Streptococcus pyogenes [7] is more than 128 µg/mL; in the test with Staphylococcus aureus [8], 16 µg/mL (≈ 19.7 µM); against Bacillus subtilis, 0.25 µg/mL (≈ 0.308 µM); in the test on Escherichia coli, more than 128 µg/mL. Besides, the Ratio with Streptococcus pneumoniae [9] is reported as 4.
Turning to `CC[C@H]1OC(=O)[C@H](C)C(=O)[C@H](C)[C@@H](O[C@@H]2O[C@H](C)C[C@H](N(C)C)[C@H]2O)[C@](C)(OC)C[C@@H](C)C(=O)[C@H](C)[C@@H](OC(=O)NCCNC(=O)c2ccc(F)cc2)[C@]1(C)O`, the MIC was 128 µg/mL (≈ 161 µM) in the test on Staphylococcus aureus [1]; 64 µg/mL (≈ 80.4 µM) with Streptococcus pneumoniae [2]; 128 µg/mL (≈ 161 µM) with Streptococcus pneumoniae [3]; 2 µg/mL (≈ 2.51 µM) with Streptococcus pneumoniae [4]; 2 µg/mL (≈ 2.51 µM) in the test on Streptococcus pyogenes [6]; 128 µg/mL (≈ 161 µM) with Pseudomonas aeruginosa. The MIC in the test on Streptococcus pyogenes [7] was more than 128 µg/mL; against Staphylococcus aureus [8], 32 µg/mL (≈ 40.2 µM); with Bacillus subtilis, 1 µg/mL (≈ 1.26 µM); against Escherichia coli, more than 128 µg/mL.
Take `CC[C@H]1OC(=O)[C@H](C)C(=O)[C@H](C)[C@@H](O[C@@H]2O[C@H](C)C[C@H](N(C)C)[C@H]2O)[C@](C)(OC)C[C@@H](C)C(=O)[C@H](C)[C@@H](OC(=O)NCCNC(=O)c2ccc(C(C)(C)C)cc2)[C@]1(C)O`: the MIC is 128 µg/mL (≈ 153 µM) with Staphylococcus aureus [1]; 128 µg/mL (≈ 153 µM) with Streptococcus pneumoniae [2]; 128 µg/mL (≈ 153 µM) with Streptococcus pneumoniae [3]; 4 µg/mL (≈ 4.8 µM) with Streptococcus pneumoniae [4]; 16 µg/mL (≈ 19.2 µM) in the test with Streptococcus pyogenes [6]; more than 128 µg/mL against Pseudomonas aeruginosa. For the same compound, the MIC is 128 µg/mL (≈ 153 µM) in the test on Streptococcus pyogenes [7], 128 µg/mL (≈ 153 µM) against Staphylococcus aureus [8], 4 µg/mL (≈ 4.8 µM) in the test with Bacillus subtilis and more than 128 µg/mL in the test with Escherichia coli.

(Values after ChEMBL document CHEMBL4052765, “Synthesis and antibacterial evaluation of novel 11-O-carbamoyl clarithromycin ketolides” (2017).)
